Laboratory results published in patent US4604236A, “Calcitonin analogs” (priority 1985, dated 1986).

Assays:
[1] = system: serum calcium concentration; assay: Biological assay of calcitonin analogs in vivo: reduction of serum calcium concentration versus salmon calcitonin standard, 2×2 parallel line assay; set-up: species or system Rats; conditions: standard used in the assay, independently determined
Procedure: The biological potency of des-13-serine-salmon calcitonin was determined by comparing the reduction of serum calcium concentration which followed administration by graded doses of des-Ser^13 -SCT and synthetic salmon calcitonin standard. Rats were divided into four groups of seven animals, and each group was assigned at random to a dose of standard or test solution. Low and high doses were chosen from the linear portion of the dose-response curve. For the salmon calcitonin standard, the values were 0.7 and 2.1 ng. peptide/100 g. body weight (BW). This dose approximates 3 and 9 MU/100 g. BW. Peptides were given by subcutaneous injection (0.2 ml/100 g. BW) and blood was withdrawn 1 hour later for serum calcium determination. Sera are processed and analyzed within two hours of collection. […]. Results were analyzed by a 2×2 parallel line assay [Gaddum, J. H., J. Pharm. Pharmacol., 6, 345 (1953)]. The standard salmon calcitonin used was independently determined to contain greater than 4,000 IU/mg. des-Ser^13 -SCT assayed at 4650 IU/mg.

[2] = literature values; cited from earlier work

Compound: CC(C)C[C@H](NC(=O)[C@H](CCCCN)NC(=O)CNC(=O)[C@H](CC(C)C)NC(=O)[C@@H](NC(=O)[C@@H]1CSSC[C@H](N)C(=O)N[C@@H](CO)C(=O)N[C@@H](CC(N)=O)C(=O)N[C@@H](CC(C)C)C(=O)N[C@@H](CO)C(=O)N[C@@H]([C@@H](C)O)C(=O)N1)C(C)C)C(=O)N[C@@H](CO)C(=O)N[C@@H](CCC(N)=O)C(=O)N[C@@H](CCC(=O)O)C(=O)N[C@@H](CC(C)C)C(=O)N[C@@H](Cc1c[nH]cn1)C(=O)N[C@@H](CCCCN)C(=O)N[C@@H](CC(C)C)C(=O)N[C@@H](CCC(N)=O)C(=O)N[C@H](C(=O)N[C@@H](Cc1ccc(O)cc1)C(=O)N1CCC[C@H]1C(=O)N[C@@H](CCCNC(=N)N)C(=O)N[C@H](C(=O)N[C@@H](CC(N)=O)C(=O)N[C@H](C(=O)NCC(=O)N[C@@H](CO)C(=O)NCC(=O)N[C@H](C(=O)N1CCC[C@H]1C(N)=O)[C@@H](C)O)[C@@H](C)O)[C@@H](C)O)[C@@H](C)O [standard salmon calcitonin, salmon calcitonin]
- potency content of the standard salmon calcitonin [1]: greater than 4,000 IU/mg

Compound: (1,7-α-L-aminosuberic acid)eel calcitonin
- hypocalcemic potency [2]: about 3400 IU/mg.

Compound: eel calcitonin [synthetic eel calcitonin]
- hypocalcemic potency [2]: around 4300 IU/mg.
